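Each compound was tested at five concentrations against cells in 96-well plates for 48 hours. Abbreviation: GI50, concentration required for 50% inhibition of growth.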 The source made the active and inactive calls. Rule as the data show it: active = GI50 up to about 1.1 µM and inactive = higher.
Key:
Assay in all cases: inhibition of tumour cell growth, NCI panel, 48 h
[1] = test system: HOP-62
[2] = test system: EKVX
[3] = test system: PC-3
[4] = test system: HCT-116
[5] = test system: LOX IMVI
[6] = test system: HCC 2998
[7] = test system: NCI-H226
[8] = test system: MOLT-4
[9] = test system: M14
[10] = test system: NCI/ADR-RES
[11] = test system: SNB-75
[12] = test system: IGROV-1
[13] = test system: CAKI-1
[14] = test system: SF-268
[15] = test system: T47D
[16] = test system: COLO 205
[17] = test system: SK-MEL-5
[18] = test system: SNB-19
[19] = test system: HT-29
[20] = test system: SF-295
[21] = test system: MDA-N
[22] = test system: A549
[23] = test system: BT-549
[24] = test system: RXF 393
[25] = test system: TK-10
[26] = test system: U-251
[27] = test system: HCT-15
[28] = test system: UACC-257
[29] = test system: CCRF-CEM
[30] = test system: RPMI-8226
[31] = test system: SK-OV-3
[32] = test system: KM12
[33] = test system: NCI-H23
[34] = test system: MDA-MB-435
[35] = test system: SN12C
[36] = test system: OVCAR-3
[37] = test system: HL-60
[38] = test system: DU-145
[39] = test system: SK-MEL-2
[40] = test system: 786-0
[41] = test system: NCI-H460
[42] = test system: K562
[43] = test system: MCF7
[44] = test system: OVCAR-5
[45] = test system: Hs-578T
[46] = test system: HOP-92
[47] = test system: Malme-3M
[48] = test system: SW-620
[49] = test system: MDA-MB-231
[50] = test system: UO-31
[51] = test system: ACHN
[52] = test system: OVCAR-4
[53] = test system: OVCAR-8
[54] = test system: UACC-62
[55] = test system: NCI-H522

In the case of `COC(=O)[C@H](Cc1ccccc1)NC(=O)OCC1OC(n2cc(C)c(=O)[nH]c2=O)CC1N=[N+]=[N-]` (stereo partly drawn), the GI50 [1] is reported as > 100 µM (inactive), the GI50 [2] is reported as > 100 µM (inactive) and the GI50 [3] is reported as > 100 µM (inactive). For the same compound, the GI50 [4] was > 100 µM (inactive), the GI50 [5] was > 100 µM (inactive) and the GI50 [6] was > 100 µM (inactive). For the same compound, the GI50 [7] was > 100 µM (inactive), the GI50 [8] was > 100 µM (inactive) and the GI50 [9] was > 100 µM (inactive). For the same compound, the GI50 [10] was > 100 µM (inactive), the GI50 [11] was 78.3 µM (inactive) and the GI50 [12] was > 100 µM (inactive). The GI50 [13] was > 100 µM (inactive), the GI50 [14] was > 100 µM (inactive) and the GI50 [15] was > 100 µM (inactive). For the same compound, the GI50 [16] was > 100 µM (inactive), the GI50 [17] was 4.12 µM (inactive) and the GI50 [18] was > 100 µM (inactive). The GI50 [19] was > 100 µM (inactive), the GI50 [20] was > 100 µM (inactive) and the GI50 [21] was > 100 µM (inactive). For the same compound, the GI50 [22] was > 100 µM (inactive), the GI50 [23] was > 100 µM (inactive) and the GI50 [24] was > 100 µM (inactive). The GI50 [25] was > 100 µM (inactive), the GI50 [26] was > 100 µM (inactive) and the GI50 [27] was over 100 µM. For the same compound, the GI50 [28] was > 100 µM (inactive), the GI50 [29] was > 100 µM (inactive) and the GI50 [30] was > 100 µM (inactive). For the same compound, the GI50 [31] was > 100 µM (inactive), the GI50 [32] was > 100 µM (inactive) and the GI50 [33] was > 100 µM (inactive). The GI50 [34] was > 100 µM (inactive), the GI50 [35] was > 100 µM (inactive) and the GI50 [36] was > 100 µM (inactive). For the same compound, the GI50 [37] was > 100 µM (inactive), the GI50 [38] was > 100 µM (inactive) and the GI50 [39] was > 100 µM (inactive). For the same compound, the GI50 [40] was > 100 µM (inactive), the GI50 [41] was > 100 µM (inactive) and the GI50 [42] was > 100 µM (inactive). The GI50 [43] was > 100 µM (inactive), the GI50 [44] was > 100 µM (inactive) and the GI50 [45] was 0.0617 µM (active). For the same compound, the GI50 [46] was > 100 µM (inactive), the GI50 [47] was > 100 µM (inactive) and the GI50 [48] was > 100 µM (inactive). For the same compound, the GI50 [49] was > 100 µM (inactive), the GI50 [50] was > 100 µM (inactive) and the GI50 [51] was 86.1 µM (inactive). For the same compound, the GI50 [52] was > 100 µM (inactive), the GI50 [53] was > 100 µM (inactive) and the GI50 [54] was > 100 µM (inactive). The GI50 [55] was > 100 µM (inactive).

`CN1CC2CC(C1)c1cccc(=O)n1C2` (stereo not drawn) was tested, and the GI50 [1] was > 100 µM (inactive), the GI50 [2] was > 100 µM (inactive) and the GI50 [3] was > 100 µM (inactive). The GI50 [4] was > 100 µM (inactive), the GI50 [5] was > 100 µM (inactive) and the GI50 [6] was 0.253 µM (active). The GI50 [9] was > 100 µM (inactive), the GI50 [10] was > 100 µM (inactive) and the GI50 [11] was > 100 µM (inactive). For the same compound, the GI50 [12] was > 100 µM (inactive), the GI50 [13] was > 100 µM (inactive) and the GI50 [14] was > 100 µM (inactive). For the same compound, the GI50 [15] was > 100 µM (inactive), the GI50 [16] was > 100 µM (inactive) and the GI50 [17] was > 100 µM (inactive). For the same compound, the GI50 [18] was > 100 µM (inactive), the GI50 [19] was > 100 µM (inactive) and the GI50 [20] was > 100 µM (inactive). The GI50 [21] was > 100 µM (inactive), the GI50 [22] was > 100 µM (inactive) and the GI50 [23] was > 100 µM (inactive). The GI50 [24] was > 100 µM (inactive), the GI50 [25] was > 100 µM (inactive) and the GI50 [26] was > 100 µM (inactive). For the same compound, the GI50 [27] was over 100 µM, the GI50 [28] was > 100 µM (inactive) and the GI50 [31] was > 100 µM (inactive). The GI50 [32] was > 100 µM (inactive), the GI50 [33] was > 100 µM (inactive) and the GI50 [34] was > 100 µM (inactive). The GI50 [35] was > 100 µM (inactive), the GI50 [36] was > 100 µM (inactive) and the GI50 [38] was > 100 µM (inactive). The GI50 [39] was > 100 µM (inactive), the GI50 [40] was > 100 µM (inactive) and the GI50 [41] was > 100 µM (inactive). For the same compound, the GI50 [43] was > 100 µM (inactive), the GI50 [44] was > 100 µM (inactive) and the GI50 [45] was > 100 µM (inactive). For the same compound, the GI50 [46] was > 100 µM (inactive), the GI50 [47] was > 100 µM (inactive) and the GI50 [49] was > 100 µM (inactive). The GI50 [50] was > 100 µM (inactive), the GI50 [51] was > 100 µM (inactive) and the GI50 [52] was > 100 µM (inactive). The GI50 [53] was > 100 µM (inactive), the GI50 [54] was > 100 µM (inactive) and the GI50 [55] was > 100 µM (inactive).
